# Values of other authors as cited in US20030003013A1, “Disinfectant composition and method for disinfecting and/or sterilising a dental unit” ([…].p.A., priority 2001, published 2003).
# Test system: bacteria and spores on a surface / water line of a dental unit
structure (smiles),measurement,setting,value
O=CCCCC=O [glutaraldehyde],contact time to reach the sporicidal level required to achieve sterility,glutaraldehyde,five
same,contact time for high-level disinfection,glutaraldehyde left in contact with a surface before flushing out,twenty to thirty
same,contact time to disinfect a surface,glutaraldehyde left in contact with the surface before flushing out,approximately five
